Assay results as given in patent publication US20110112056A1, “Use of Carbon-2-Modified-Vitamin D Analogs to Induce the Formation of New Bone” (WISCONSIN ALUMNI RESEARCH FOUNDATION, priority 2002, published 2011).
“Also recorded” adds a separate entry of the source. Where two headings read alike, the source gives them in different places.

Tests used:
[1] = tested on: human osteoblast cultures; assay: Bone nodule formation in vitro in human osteoblast cultures (Von Kossa stain); format: cell-based; details: for formation of mineralized bone by osteoblast cultures (Von Kossa stain, FIG. 2): different concentrations (10^−8 to 10^−12 molar)
From the text: Human bone samples discarded after surgical procedures from patients undergoing hip/knee replacement surgeries are obtained under an approved IRB protocol (Protocol #2001-055) and processed as described below. These bone pieces are otherwise routinely discarded as waste material during surgery.
The bone pieces are thoroughly washed and cleaned under sterile conditions using phosphate-buffered saline (PBS). These pieces are then cut to obtain smaller pieces (1-2 mm^3) and subjected to enzymatic digestion process to isolate osteoblasts as described below.
Osteoblastic cells are obtained from the bone pieces by collagenase digestion. Briefly, the bone samples are washed twice in PBS and dissected in about 1 mm^3 size fragments which are then sequentially digested in trypsin (1 mg/mL) for ten minutes, followed by dispase (2 mg/mL) for twenty minutes, and bacterial collagenase [Collagenase A] (3 mg/mL) twice for thirty minutes in PBS at 37° C. in a water bath. Cells released by collagenase digestion are then washed, counted and grown to sub-confluence in 25 cm^2 cell culture flasks in 1:1 Ham's F12/Dulbecco's modification of Eagle's medium (DMEM) supplemented with 10% fetal bovine serum. Cells are cultured at 37° C. in a humidified atmosphere of 5% CO2/95% air. Medium changes are made every 2-3 days and cells are cultured until they are 80% confluent. Cells are then trypsinized, washed and frozen from early passages for evaluation using techniques as described below.
In order to evaluate the ability of osteoblasts to form bone nodules in vitro, cells are cultured in 6 well plates at 1-3×10^5 cells/well. Cells are cultured in the presence of either 1,25-(OH)2D3 or vitamin D analogs at various doses for 7 days. Complete medium changes are carried out twice during the 7-day period and the medium is supplemented with fresh compounds (either 1,25-(OH)2D3 or 2-methylene-19-nor-(20S)-1α,25-dihydroxyvitamin D3—2MD) during each medium change. At days 10 and 13, complete medium changes are carried out and the compounds are replaced by treatment with ascorbic acid (50 μg/ml) and β-glycerol phosphate (10 mM). A third dose of ascorbic acid and β-glycerol phosphate is added to the cultures on day 15 if needed. Following the culture period, cells are stained using the Von Kossa technique. Briefly, cells are stained with 5% silver nitrate for 30 minutes in the dark, rinsed with distilled water, reduced with sodium carbonate/formaldehyde solution for 2 minutes and washed under tap water for 10 minutes. The cells are then stained with methyl green pyronin for 20 minutes, washed with water followed by two washes of absolute alcohol. […] Bone nodule formation in vitro can be assessed quantitatively by various published procedures.

post-menopausal women = details: cited from earlier work
ovariectomized rats = details: cited from earlier work; for bone mass: ovariectomized animal; for bone strength: ovariectomized rats

| Structure (SMILES) | change in osteoblast cultures (photographs, FIG. 1) ([1]; 10^−8 molar, after 14 days of incubation) | formation of mineralized bone by osteoblast cultures (Von Kossa stain, FIG. 2) [1] | bone mass (post-menopausal women) | fracture rate (post-menopausal women) | degree of new bone formation ([1]; 10^−12 molar) | bone mass (ovariectomized rats) | bone mass (ovariectomized rats; listed as 2-methylene-19-nor-20S-1,25-(OH)2D3) | bone strength (ovariectomized rats) |
| --- | --- | --- | --- | --- | --- | --- | --- | --- |
| C=C1/C(=C\C=C2/CCC[C@]3(C)[C@@H]([C@H](C)CCCC(C)(C)O)CC[C@@H]23)C[C@@H](O)C[C@@H]1O [1,25-(OH)2D3, 1α,25-dihydroxyvitamin D3] | very little change | does not produce this effect; also recorded: minimum effect | will not appreciably increase the bone mass | will decrease the fracture rate |  |  |  |  |
| C=C1[C@H](O)CC(=C/C=C2\CCC[C@]3(C)[C@@H]([C@@H](C)CCCC(C)(C)O)CC[C@@H]23)C[C@H]1O [2MD, 2-methylene-19-nor-(20S)-1α,25-dihydroxyvitamin D3] |  | unique and strong action |  |  | saturating degree of new bone formation | markedly stimulate bone mass accumulation | increase bone mass | increase bone strength |
| CC1C(O)CC(=CC=C2CCC[C@]3(C)[C@@H]([C@@H](C)CCCC(C)(C)O)CC[C@@H]23)CC1O (stereo partly drawn) [2α-methyl-19-nor-20S-1,25-(OH)2D3, 2α-methyl-19-nor-20(S)-1α,25-dihydroxyvitamin D3] |  |  |  |  |  | increase bone mass |  | increase bone strength |
